# Read-outs that look alike come from different tables or passages of the source.
# Tests used:
# [1] = tested on: M. tuberculosis H37Rv-GFP; assay: microbe, parasite or virus in culture; type: cell-based, Mycobacterium tuberculosis; details: Mycobacterium tuberculosis, H37RV, Macrophage
# Raw264.7 cells [2] = details: mouse
# Raw264.7 cells [3] = assay: Cell number (CellNb) from image analysis of the phenotypic cell-based assay
# [4] = confirmation, 20 uM, read-out: QIM Confirm % Inhibition 20 uM
# [5] = primary screen, 20 μM, read-out: Primary QIM % Inhibition
Compound,"inhibition at 20 µM [1, 4] [%]","inhibition at 20 µM [1, 5] [%]","Primary QIM CellNb (Raw264.7 cells [2]; 5 days, 20 μM)","QIM Confirm CellNb 0.2 uM (Raw264.7 cells [3]; confirmation, 0.2 uM)","Primary QIM CellNb (Raw264.7 cells [3]; primary screen, 20 μM)",melting point,inhibition at 20 µM ([1]; read-out: Primary QIM % Inhibition) [%],inhibition at 20 µM ([1]; read-out: QIM Confirm % Inhibition 20 uM) [%],Primary QIM CellNb (Raw264.7 cells [2]),Primary QIM CellNb (Raw264.7 cells [3]),"QIM Confirm CellNb 20 uM (Raw264.7 cells [2]; 5 days, 20 uM)"
NNC(=O)c1ccc(COc2ccc(F)cc2)o1 [IPK 000 124 65],94.3,77.1,45.0,267.0,490.8,,,,,,
O=C(Nc1ccc(Cl)c(Cl)c1)c1ccc([N+](=O)[O-])cc1Cl [IPK 000 048 99],73.5,76.8,40.3,,217.8,,,,,,
COc1cccn2c(=O)c(CO)c(Nc3ccc(F)c(F)c3)nc12,,,,,,231 °C (dec.),,,,,
Oc1ccccc1/N=C/c1cc(Br)cc(Br)c1O [IPK 000 044 41],29.9,-120,34.0,,126.8,,,,,,
O=C(N/N=C/c1ccc(O)cc1)c1ccncc1 [IPK 000 043 07],98.6,104,102.5,,303.5,,,,,,
COc1ccc(/C(C)=N/NC(N)=S)c(OC)c1 [IPK 000 080 24],23,0.2,67.6,,188.8,,,,,,
CCOc1ccc(/C(C)=N/NC(N)=S)cc1 [IPK 000 080 37],,,,,,,-44,36,62.1,110.8,
CC(NC(=O)c1cccc(Cl)c1)c1ccccc1 (centres unmarked) [IPK 000 067 51],73.2,75.2,17.9,,142.3,,,,,,
Cc1cccn2c(=O)c(C=O)c(Nc3cccc(Cl)c3)nc12 [IPK 000 042 07],107,34.7,104.0,,198.0,,,,,,
CCCCOc1ccc(/C=N/NC(=O)c2ccncc2)cc1 [IPK 000 043 06],98,81.4,98.1,,200.3,,,,,,
O=C(N/N=C/c1ccccc1Cl)c1ccncc1 [IPK 000 043 05],104,97.1,101.6,,228.8,,,,,,80.2
O=C1CSC(N/N=C/c2cc([N+](=O)[O-])ccc2O)N1 (centres unmarked) [IPK 000 109 00],8.2,-7.8,23.8,,87.8,,,,,,

# — patent publication US8785452B2, “Anti-infective compounds” (priority 2008, dated 2014)
